{"source": "ChEMBL document CHEMBL3352227", "about": "“Synthesis, antimycobacterial and antibacterial evaluation of l-[(1R, 2S)-2-fluorocyclopropyl]fluoroquinolone derivatives containing an oxime functional moiety” (Eur J Med Chem, 2014)"}
{"tested_on": "Klebsiella pneumoniae", "test": "Antibacterial activity against extended-spectrum beta-lactamase producin Klebsiella pneumoniae 12-4 after 18 to 24 hrs by standard twofold serial dilution method", "type": "functional", "units": {"MIC": "mg/L"}}
{"smiles": "NC[C@@H]1/C(=N\\OCc2ccccc2)CN1c1cc2c(cc1F)c(=O)c(C(=O)O)cn2[C@@H]1C[C@@H]1F", "MIC": 16}
{"tested_on": "Pseudomonas aeruginosa", "test": "Antibacterial activity against Pseudomonas aeruginosa 12-12 after 18 to 24 hrs by standard twofold serial dilution method", "type": "functional", "units": {"MIC": "mg/L"}}
{"smiles": "NC[C@@H]1/C(=N\\OCc2ccccc2)CN1c1cc2c(cc1F)c(=O)c(C(=O)O)cn2[C@@H]1C[C@@H]1F", "MIC": 2}
{"tested_on": "Klebsiella pneumoniae", "test": "Antibacterial activity against extended-spectrum beta-lactamase producin Klebsiella pneumoniae 12-7 after 18 to 24 hrs by standard twofold serial dilution method", "type": "functional", "units": {"MIC": "mg/L"}}
{"smiles": "NC[C@@H]1/C(=N\\OCc2ccccc2)CN1c1cc2c(cc1F)c(=O)c(C(=O)O)cn2[C@@H]1C[C@@H]1F", "MIC": 2}
{"tested_on": "Staphylococcus aureus", "test": "Antibacterial activity against methicillin-resistant Staphylococcus aureus 12-4 after 18 to 24 hrs by standard twofold serial dilution method", "type": "functional", "units": {"MIC": "mg/L"}}
{"smiles": "NC[C@@H]1/C(=N\\OCc2ccccc2)CN1c1cc2c(cc1F)c(=O)c(C(=O)O)cn2[C@@H]1C[C@@H]1F", "MIC": "> 128"}
{"tested_on": "Mycobacterium tuberculosis", "test": "Antimycobacterial activity against Mycobacterium tuberculosis H37Rv ATCC 27294 by MABA method", "type": "functional", "units": {"MIC": "mg/L"}}
{"smiles": "NC[C@@H]1/C(=N\\OCc2ccccc2)CN1c1cc2c(cc1F)c(=O)c(C(=O)O)cn2[C@@H]1C[C@@H]1F", "MIC": 8}
{"tested_on": "Klebsiella pneumoniae", "test": "Antibacterial activity against Klebsiella pneumoniae 12-1 after 18 to 24 hrs by standard twofold serial dilution method", "type": "functional", "units": {"MIC": "mg/L"}}
{"smiles": "NC[C@@H]1/C(=N\\OCc2ccccc2)CN1c1cc2c(cc1F)c(=O)c(C(=O)O)cn2[C@@H]1C[C@@H]1F", "MIC": 0.5}
{"tested_on": "Klebsiella pneumoniae", "test": "Antibacterial activity against extended-spectrum beta-lactamase producin Klebsiella pneumoniae 12-3 after 18 to 24 hrs by standard twofold serial dilution method", "type": "functional", "units": {"MIC": "mg/L"}}
{"smiles": "NC[C@@H]1/C(=N\\OCc2ccccc2)CN1c1cc2c(cc1F)c(=O)c(C(=O)O)cn2[C@@H]1C[C@@H]1F", "MIC": 128}
{"tested_on": "Escherichia coli", "test": "Antibacterial activity against extended-spectrum beta-lactamase producing Escherichia coli 12-3 after 18 to 24 hrs by standard twofold serial dilution method", "type": "functional", "units": {"MIC": "mg/L"}}
{"smiles": "NC[C@@H]1/C(=N\\OCc2ccccc2)CN1c1cc2c(cc1F)c(=O)c(C(=O)O)cn2[C@@H]1C[C@@H]1F", "MIC": 16}
{"tested_on": "Staphylococcus aureus", "test": "Antibacterial activity against methicillin-sensitive Staphylococcus aureus 12-1 after 18 to 24 hrs by standard twofold serial dilution method", "type": "functional", "units": {"MIC": "mg/L"}}
{"smiles": "NC[C@@H]1/C(=N\\OCc2ccccc2)CN1c1cc2c(cc1F)c(=O)c(C(=O)O)cn2[C@@H]1C[C@@H]1F", "MIC": 1}
{"tested_on": "Staphylococcus aureus", "test": "Antibacterial activity against methicillin-resistant Staphylococcus aureus 12-5 after 18 to 24 hrs by standard twofold serial dilution method", "type": "functional", "units": {"MIC": "mg/L"}}
{"smiles": "NC[C@@H]1/C(=N\\OCc2ccccc2)CN1c1cc2c(cc1F)c(=O)c(C(=O)O)cn2[C@@H]1C[C@@H]1F", "MIC": 128}
{"tested_on": "Staphylococcus aureus", "test": "Antibacterial activity against methicillin-sensitive Staphylococcus aureus 12-4 after 18 to 24 hrs by standard twofold serial dilution method", "type": "functional", "units": {"MIC": "mg/L"}}
{"smiles": "NC[C@@H]1/C(=N\\OCc2ccccc2)CN1c1cc2c(cc1F)c(=O)c(C(=O)O)cn2[C@@H]1C[C@@H]1F", "MIC": 1}
{"tested_on": "Escherichia coli", "test": "Antibacterial activity against Escherichia coli 12-1 after 18 to 24 hrs by standard twofold serial dilution method", "type": "functional", "units": {"MIC": "mg/L"}}
{"smiles": "NC[C@@H]1/C(=N\\OCc2ccccc2)CN1c1cc2c(cc1F)c(=O)c(C(=O)O)cn2[C@@H]1C[C@@H]1F", "MIC": 8}
{"tested_on": "Staphylococcus epidermidis", "test": "Antibacterial activity against methicillin-sensitive Staphylococcus epidermidis 12-6 after 18 to 24 hrs by standard twofold serial dilution method", "type": "functional", "units": {"MIC": "mg/L"}}
{"smiles": "NC[C@@H]1/C(=N\\OCc2ccccc2)CN1c1cc2c(cc1F)c(=O)c(C(=O)O)cn2[C@@H]1C[C@@H]1F", "MIC": 1}
{"tested_on": "Staphylococcus aureus", "test": "Antibacterial activity against methicillin-sensitive Staphylococcus aureus 12-5 after 18 to 24 hrs by standard twofold serial dilution method", "type": "functional", "units": {"MIC": "mg/L"}}
{"smiles": "NC[C@@H]1/C(=N\\OCc2ccccc2)CN1c1cc2c(cc1F)c(=O)c(C(=O)O)cn2[C@@H]1C[C@@H]1F", "MIC": 1}
{"tested_on": "Staphylococcus epidermidis", "test": "Antibacterial activity against methicillin-sensitive Staphylococcus epidermidis 12-1 after 18 to 24 hrs by standard twofold serial dilution method", "type": "functional", "units": {"MIC": "mg/L"}}
{"smiles": "NC[C@@H]1/C(=N\\OCc2ccccc2)CN1c1cc2c(cc1F)c(=O)c(C(=O)O)cn2[C@@H]1C[C@@H]1F", "MIC": 1}
{"tested_on": "Klebsiella pneumoniae", "test": "Antibacterial activity against Klebsiella pneumoniae 12-4 after 18 to 24 hrs by standard twofold serial dilution method", "type": "functional", "units": {"MIC": "mg/L"}}
{"smiles": "NC[C@@H]1/C(=N\\OCc2ccccc2)CN1c1cc2c(cc1F)c(=O)c(C(=O)O)cn2[C@@H]1C[C@@H]1F", "MIC": 0.5}
{"tested_on": "Klebsiella pneumoniae", "test": "Antibacterial activity against Klebsiella pneumoniae 12-2 after 18 to 24 hrs by standard twofold serial dilution method", "type": "functional", "units": {"MIC": "mg/L"}}
{"smiles": "NC[C@@H]1/C(=N\\OCc2ccccc2)CN1c1cc2c(cc1F)c(=O)c(C(=O)O)cn2[C@@H]1C[C@@H]1F", "MIC": 0.5}
{"tested_on": "Pseudomonas aeruginosa", "test": "Antibacterial activity against Pseudomonas aeruginosa 12-14 after 18 to 24 hrs by standard twofold serial dilution method", "type": "functional", "units": {"MIC": "mg/L"}}
{"smiles": "NC[C@@H]1/C(=N\\OCc2ccccc2)CN1c1cc2c(cc1F)c(=O)c(C(=O)O)cn2[C@@H]1C[C@@H]1F", "MIC": 32}
{"tested_on": "Staphylococcus epidermidis", "test": "Antibacterial activity against methicillin-sensitive Staphylococcus epidermidis 12-8 after 18 to 24 hrs by standard twofold serial dilution method", "type": "functional", "units": {"MIC": "mg/L"}}
{"smiles": "NC[C@@H]1/C(=N\\OCc2ccccc2)CN1c1cc2c(cc1F)c(=O)c(C(=O)O)cn2[C@@H]1C[C@@H]1F", "MIC": 2}
{"tested_on": "Staphylococcus epidermidis", "test": "Antibacterial activity against methicillin-resistant Staphylococcus epidermidis 12-6 after 18 to 24 hrs by standard twofold serial dilution method", "type": "functional", "units": {"MIC": "mg/L"}}
{"smiles": "NC[C@@H]1/C(=N\\OCc2ccccc2)CN1c1cc2c(cc1F)c(=O)c(C(=O)O)cn2[C@@H]1C[C@@H]1F", "MIC": 8}
{"tested_on": "Escherichia coli", "test": "Antibacterial activity against extended-spectrum beta-lactamase producing Escherichia coli 12-14 after 18 to 24 hrs by standard twofold serial dilution method", "type": "functional", "units": {"MIC": "mg/L"}}
{"smiles": "NC[C@@H]1/C(=N\\OCc2ccccc2)CN1c1cc2c(cc1F)c(=O)c(C(=O)O)cn2[C@@H]1C[C@@H]1F", "MIC": 128}
{"tested_on": "Staphylococcus epidermidis", "test": "Antibacterial activity against methicillin-sensitive Staphylococcus epidermidis 12-3 after 18 to 24 hrs by standard twofold serial dilution method", "type": "functional", "units": {"MIC": "mg/L"}}
{"smiles": "NC[C@@H]1/C(=N\\OCc2ccccc2)CN1c1cc2c(cc1F)c(=O)c(C(=O)O)cn2[C@@H]1C[C@@H]1F", "MIC": 2}
{"tested_on": "Staphylococcus aureus", "test": "Antibacterial activity against methicillin-resistant Staphylococcus aureus 12-2 after 18 to 24 hrs by standard twofold serial dilution method", "type": "functional", "units": {"MIC": "mg/L"}}
{"smiles": "NC[C@@H]1/C(=N\\OCc2ccccc2)CN1c1cc2c(cc1F)c(=O)c(C(=O)O)cn2[C@@H]1C[C@@H]1F", "MIC": "> 128"}
{"tested_on": "Escherichia coli", "test": "Antibacterial activity against Escherichia coli ATCC 25922 after 18 to 24 hrs by standard twofold serial dilution method", "type": "functional", "units": {"MIC": "mg/L"}}
{"smiles": "NC[C@@H]1/C(=N\\OCc2ccccc2)CN1c1cc2c(cc1F)c(=O)c(C(=O)O)cn2[C@@H]1C[C@@H]1F", "MIC": 0.25}
{"tested_on": "Escherichia coli", "test": "Antibacterial activity against extended-spectrum beta-lactamase producing Escherichia coli 12-15 after 18 to 24 hrs by standard twofold serial dilution method", "type": "functional", "units": {"MIC": "mg/L"}}
{"smiles": "NC[C@@H]1/C(=N\\OCc2ccccc2)CN1c1cc2c(cc1F)c(=O)c(C(=O)O)cn2[C@@H]1C[C@@H]1F", "MIC": "> 128"}
{"tested_on": "Staphylococcus aureus", "test": "Antibacterial activity against Staphylococcus aureus ATCC 25923 after 18 to 24 hrs by standard twofold serial dilution method", "type": "functional", "units": {"MIC": "mg/L"}}
{"smiles": "NC[C@@H]1/C(=N\\OCc2ccccc2)CN1c1cc2c(cc1F)c(=O)c(C(=O)O)cn2[C@@H]1C[C@@H]1F", "MIC": 0.25}
{"tested_on": "Streptococcus pneumoniae", "test": "Antibacterial activity against Streptococcus pneumoniae 12-18 after 18 to 24 hrs by standard twofold serial dilution method", "type": "functional", "units": {"MIC": "mg/L"}}
{"smiles": "NC[C@@H]1/C(=N\\OCc2ccccc2)CN1c1cc2c(cc1F)c(=O)c(C(=O)O)cn2[C@@H]1C[C@@H]1F", "MIC": 8}
{"tested_on": "Klebsiella pneumoniae", "test": "Antibacterial activity against extended-spectrum beta-lactamase producin Klebsiella pneumoniae 12-14 after 18 to 24 hrs by standard twofold serial dilution method", "type": "functional", "units": {"MIC": "mg/L"}}
{"smiles": "NC[C@@H]1/C(=N\\OCc2ccccc2)CN1c1cc2c(cc1F)c(=O)c(C(=O)O)cn2[C@@H]1C[C@@H]1F", "MIC": 128}
{"tested_on": "Escherichia coli", "test": "Antibacterial activity against extended-spectrum beta-lactamase producing Escherichia coli 12-2 after 18 to 24 hrs by standard twofold serial dilution method", "type": "functional", "units": {"MIC": "mg/L"}}
{"smiles": "NC[C@@H]1/C(=N\\OCc2ccccc2)CN1c1cc2c(cc1F)c(=O)c(C(=O)O)cn2[C@@H]1C[C@@H]1F", "MIC": "> 128"}
{"tested_on": "Staphylococcus aureus", "test": "Antibacterial activity against methicillin-sensitive Staphylococcus aureus 12-2 after 18 to 24 hrs by standard twofold serial dilution method", "type": "functional", "units": {"MIC": "mg/L"}}
{"smiles": "NC[C@@H]1/C(=N\\OCc2ccccc2)CN1c1cc2c(cc1F)c(=O)c(C(=O)O)cn2[C@@H]1C[C@@H]1F", "MIC": 1}
{"tested_on": "Staphylococcus epidermidis", "test": "Antibacterial activity against methicillin-resistant Staphylococcus epidermidis 12-1 after 18 to 24 hrs by standard twofold serial dilution method", "type": "functional", "units": {"MIC": "mg/L"}}
{"smiles": "NC[C@@H]1/C(=N\\OCc2ccccc2)CN1c1cc2c(cc1F)c(=O)c(C(=O)O)cn2[C@@H]1C[C@@H]1F", "MIC": 32}
{"tested_on": "Streptococcus pneumoniae", "test": "Antibacterial activity against Streptococcus pneumoniae ATCC 49619 after 18 to 24 hrs by standard twofold serial dilution method", "type": "functional", "units": {"MIC": "mg/L"}}
{"smiles": "NC[C@@H]1/C(=N\\OCc2ccccc2)CN1c1cc2c(cc1F)c(=O)c(C(=O)O)cn2[C@@H]1C[C@@H]1F", "MIC": 0.5}
